Reference: PubChem BioAssay AID342 (DTP/NCI, 2004)
Values joined by “and” are separate entries in the source; they are usually repeats but may differ in a detail not shown here. Equal entries are not always repeated.

System: Swiss mice, Sarcoma 180 sc, mean tumor weight T/C
Test: NCI In Vivo Anticancer Drug Screen. Data for tumor model Sarcoma 180 (subcutaneous) in Swiss mice
Settings: endpoint: mean tumor weight, higher = larger tumour
In short: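 Mice bearing transplanted tumors were treated with compound, and survival or tumor size was measured. Values are expressed as the treated-group measurement (T) divided by the vehicle-treated control measurement (C).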

[1] = dose: 30.0 mg/kg/injection, schedule: Q01DX007 (ip), vehicle: carboxymethylcellulose (CMC)

`O=c1[nH]cc(N(CCCl)CCCl)c(=O)[nH]1` was tested, and the T/C (dose: 0.2 mg/kg/injection, schedule: Q01DX007 (ip), vehicle: carboxymethylcellulose (CMC)) was 104 % of control, the T/C (dose: 0.31 mg/kg/injection, schedule: Q#A X014 (ip), vehicle: carboxymethylcellulose (CMC)) was 51 % of control and the T/C (dose: 0.32 mg/kg/injection, schedule: Q#A X014 (ip), vehicle: carboxymethylcellulose (CMC)) was 65 % of control. For the same molecule, the T/C (dose: 0.4 mg/kg/injection, schedule: Q01DX007 (ip), vehicle: carboxymethylcellulose (CMC)) was 88 % of control, the T/C (dose: 0.4 mg/kg/injection, schedule: Q#A X014 (ip), vehicle: carboxymethylcellulose (CMC)) was 67 % of control and the T/C (dose: 0.53 mg/kg/injection, schedule: Q#A X014 (ip), vehicle: carboxymethylcellulose (CMC)) was 67 % of control. For the same molecule, the T/C (dose: 0.62 mg/kg/injection, schedule: Q#A X014 (ip), vehicle: carboxymethylcellulose (CMC)) was 32 % of control, the T/C (dose: 0.64 mg/kg/injection, schedule: Q01DX007 (ip), vehicle: carboxymethylcellulose (CMC)) was 85 % of control and the T/C (dose: 0.75 mg/kg/injection, schedule: Q01DX007 (ip), vehicle: saline) was 85 % of control. The T/C (dose: 0.8 mg/kg/injection, schedule: Q01DX007 (ip), vehicle: carboxymethylcellulose (CMC)) was 62 % of control and 76 % of control, the T/C (dose: 0.8 mg/kg/injection, schedule: Q#A X014 (ip), vehicle: carboxymethylcellulose (CMC)) was 41 % of control and the T/C (dose: 1.06 mg/kg/injection, schedule: Q01DX007 (ip), vehicle: carboxymethylcellulose (CMC)) was 51 % of control. For the same molecule, the T/C (dose: 1.5 mg/kg/injection, schedule: Q01DX007 (ip), vehicle: saline) was 60 % of control, the T/C (dose: 1.5 mg/kg/injection, schedule: Q#A X014 (ip), vehicle: alkali diluted with saline) was 21 % of control and the T/C (dose: 1.6 mg/kg/injection, schedule: Q01DX007 (ip), vehicle: carboxymethylcellulose (CMC)) was 21 % of control.
For `Cc1cc(N(CCCl)CCCl)ccc1C=Nc1ccccc1-c1ccccc1`, the T/C (dose: 25.0 mg/kg/injection, schedule: Q01DX007 (ip), vehicle: saline) was 100 % of control, the T/C (dose: 50.0 mg/kg/injection, schedule: Q01DX007 (ip), vehicle: saline) was 96 % of control and the T/C (dose: 100.0 mg/kg/injection, schedule: Q01DX007 (ip), vehicle: saline) was 105 % of control. For the same molecule, the T/C (dose: 200.0 mg/kg/injection, schedule: Q01DX007 (ip), vehicle: saline) was 73 % of control.
With `O=P1(N(CCCl)CCCl)NCCCO1` (stereo not drawn) the T/C (dose: 12.5 mg/kg/injection, schedule: Q01DX007 (ip), vehicle: carboxymethylcellulose (CMC)) was 50 % of control and 55 % of control, the T/C (dose: 15.0 mg/kg/injection, schedule: Q01DX007 (ip), vehicle: carboxymethylcellulose (CMC)) was 88 % of control and the T/C (dose: 23.88 mg/kg/injection, schedule: Q01DX007 (ip), vehicle: carboxymethylcellulose (CMC)) was 101 % of control. For the same molecule, the T/C (dose: 25.0 mg/kg/injection, schedule: Q01DX007 (ip), vehicle: carboxymethylcellulose (CMC)) was 70 % of control, the T/C (dose: 29.85 mg/kg/injection, schedule: Q01DX007 (ip), vehicle: carboxymethylcellulose (CMC)) was 97 % of control and the T/C [1] was 25 % of control. For the same molecule, the T/C (dose: 39.8 mg/kg/injection, schedule: Q01DX007 (ip), vehicle: carboxymethylcellulose (CMC)) was 72 % of control, the T/C (dose: 59.7 mg/kg/injection, schedule: Q01DX007 (ip), vehicle: carboxymethylcellulose (CMC)) was 34 % of control and the T/C (dose: 60.0 mg/kg/injection, schedule: Q01DX007 (ip), vehicle: carboxymethylcellulose (CMC)) was 4 % of control. For the same molecule, the T/C (dose: 80.0 mg/kg/injection, schedule: Q01DX007 (ip), vehicle: carboxymethylcellulose (CMC)) was 4 % of control, the T/C (dose: 746.25 mg/kg/injection, schedule: Q#A X014 (ip), vehicle: carboxymethylcellulose (CMC)) was 65 % of control and the T/C (dose: 1492.5 mg/kg/injection, schedule: Q#A X014 (ip), vehicle: carboxymethylcellulose (CMC)) was 45 % of control. The T/C (dose: 2985.0 mg/kg/injection, schedule: Q#A X014 (ip), vehicle: carboxymethylcellulose (CMC)) was 7 % of control and the T/C (dose: 3731.0 mg/kg/injection, schedule: Q#A X014 (ip), vehicle: carboxymethylcellulose (CMC)) was 67 % of control.
`COc1cc2c3c(c4ccc(OC)c(OC)c4c2cc1OC)CN1CCC[C@@H]1C3` was tested, and the T/C (dose: 12.0 mg/kg/injection, schedule: Q01DX007 (ip), vehicle: water) was 21 % of control.
For `C[C@]12C=CC(=O)C=C1CC[C@@H]1[C@@H]2[C@@H](O)C[C@@]2(C)[C@H]1CC[C@]2(O)C(=O)COC(=O)C1CCCC1`, the T/C (dose: 3.5 mg/kg/injection, schedule: Q#A X014 (sc), vehicle: water) was 68 % of control, the T/C (dose: 5.0 mg/kg/injection, schedule: Q#A X014 (sc), vehicle: water) was 35 % of control and the T/C (dose: 7.5 mg/kg/injection, schedule: Q#A X014 (sc), vehicle: water) was 49 % of control. The T/C (dose: 11.5 mg/kg/injection, schedule: Q#A X014 (sc), vehicle: water) was 47 % of control and the T/C (dose: 17.5 mg/kg/injection, schedule: Q#A X014 (sc), vehicle: water) was 32 % of control.
`C=CCNc1ccc(C)cc1` was tested, and the T/C [1] was 72 % of control and 88 % of control, the T/C (dose: 55.0 mg/kg/injection, schedule: Q01DX007 (ip), vehicle: carboxymethylcellulose (CMC)) was 86 % of control and the T/C (dose: 69.0 mg/kg/injection, schedule: Q01DX007 (ip), vehicle: carboxymethylcellulose (CMC)) was 109 % of control. The T/C (dose: 83.0 mg/kg/injection, schedule: Q01DX007 (ip), vehicle: carboxymethylcellulose (CMC)) was 76 % of control, the T/C (dose: 105.0 mg/kg/injection, schedule: Q01DX007 (ip), vehicle: carboxymethylcellulose (CMC)) was 76 % of control and 83 % of control and the T/C (dose: 125.0 mg/kg/injection, schedule: Q01DX007 (ip), vehicle: carboxymethylcellulose (CMC)) was 26 % of control. For the same molecule, the T/C (dose: 157.0 mg/kg/injection, schedule: Q01DX007 (ip), vehicle: carboxymethylcellulose (CMC)) was 94 % of control.
For `CCCCCCCCCCCCCCCCCC1=NCCN1CCN`, the T/C (dose: 22.0 mg/kg/injection, schedule: Q#A X014 (ip), vehicle: saline) was 74 % of control and 84 % of control and the T/C (dose: 50.0 mg/kg/injection, schedule: Q#A X014 (ip), vehicle: saline) was 33 % of control.
In the case of `C[C@H]1C[C@@H]2[C@H](C(=O)C[C@@]3(C)[C@H]2CC[C@]3(O)C(=O)CO)[C@@]2(C)C=CC(=O)C=C12`, the T/C (dose: 221.0 mg/kg/injection, schedule: Q01DX007 (sc), vehicle: steriod suspending solution) is reported as 41 % of control, the T/C (dose: 330.0 mg/kg/injection, schedule: Q01DX007 (sc), vehicle: steriod suspending solution) is reported as 43 % of control and 65 % of control and the T/C (dose: 739.0 mg/kg/injection, schedule: Q01DX007 (sc), vehicle: steriod suspending solution) is reported as 13 % of control.
With `CN(CC(=O)O)C(=N)N` the T/C (dose: 1500.0 mg/kg/injection, schedule: Q#A X014 (ip), vehicle: water) was 92 % of control and the T/C (dose: 2500.0 mg/kg/injection, schedule: Q#A X014 (ip), vehicle: water) was 74 % of control.
